US7358249B2, “Heterocyclic compounds having inhibitory activity against HIV integrase” (Shionogi & Co., Ltd., priority 2002, dated 2008)

Row | melting point | Structure (SMILES)
1 | 256 °C (dec.) | COC(=O)c1nc(N2CCOC2=O)c2cc(Cc3ccc(F)cc3)cnc2c1O
2 | 228 to 229 °C | COC(=O)c1nc(C(=O)NS(=O)(=O)c2ccccc2)c2cc(Cc3ccc(F)cc3)cnc2c1O
3 | 145 to 146 °C | COCCNC(=O)c1nc(C(=O)OC)c(O)c2ncc(Cc3ccc(F)cc3)cc12
4 | 182 to 184 °C | COC(=O)c1nc(N2C(=O)COCC2=O)c2cc(Cc3ccc(F)cc3)cnc2c1O
5 | 206 to 207 °C | CN(C)NC(=O)c1nc(C#CC2=CCCC2)c2cc(Cc3ccc(F)cc3)cnc2c1O
6 | 198 °C | COCCNC(=O)c1nc(C#CCNS(C)(=O)=O)c2cc(Cc3ccc(F)cc3)cnc2c1O
7 | 229 to 230 °C (dec.) | CN(C)NC(=O)c1nc(C#CCNS(C)(=O)=O)c2cc(Cc3ccc(F)cc3)cnc2c1O
8 | 170 to 172 °C | COC(=O)c1nc(NS(=O)(=O)NC(=O)OC(C)C)c2cc(Cc3ccc(F)cc3)cnc2c1O
9 | 241 to 242 °C | COCCNC(=O)c1nc(NS(C)(=O)=O)c2cc(Cc3ccc(F)cc3)cnc2c1O
10 | 152 °C | COC(=O)c1cc(Br)c2cc(Cc3ccc(F)cc3)cnc2c1O
11 | 234 to 235 °C (dec.) | COCCOC(=O)c1cc(C(=O)O)c2cc(Cc3ccc(F)cc3)cnc2c1O
12 | 239 to 242 °C | CC(=O)c1cc(C(=O)O)c2cc(Cc3ccc(F)cc3)cnc2c1O
13 | 226 to 228 °C | COCCCC(=O)c1cc(C(=O)O)c2cc(Cc3ccc(F)cc3)cnc2c1O
14 | 261.5 to 262.5 °C | COC(=O)c1cc(NC(=N)N)c2cc(Cc3ccc(F)cc3)cnc2c1O.Cl
15 | 90 to 91 °C | CCN(CCOC)C(=O)c1cc(C(=O)OC)c(O)c2ncc(Cc3ccc(F)cc3)cc12
16 | 229 to 230 °C | COC(=O)c1cc(C(=O)NCCN)c2cc(Cc3ccc(F)cc3)cnc2c1O
17 | 244 to 245 °C | COC(=O)c1cc(Cc2cc(C(=O)OC)c(O)c3ncc(Cc4ccc(F)cc4)cc23)c2cc(Cc3ccc(F)cc3)cnc2c1O
18 | 173 to 175 °C | COC(=O)c1cc(CC#N)c2cc(Cc3ccc(F)cc3)cnc2c1O
19 | 209 to 211 °C | COC(=O)c1cc(CC(N)=O)c2cc(Cc3ccc(F)cc3)cnc2c1O
20 | 218 to 220 °C | COC(=O)c1cc(CC(=O)O)c2cc(Cc3ccc(F)cc3)cnc2c1O
21 | 212 to 213 °C | NC(=O)c1cc(C(=O)O)c2cc(Cc3ccc(F)cc3)cnc2c1O

Row | melting point | Structure (SMILES)
22 | 186 to 188 °C | CONC(=O)c1cc(C(=O)OC)c2cc(Cc3ccc(F)cc3)cnc2c1O
23 | 166 to 168 °C | COCCOC(=O)c1cc(C(=O)NOC)c(O)c2ncc(Cc3ccc(F)cc3)cc12
24 | 165 to 167 °C | COCCNC(=O)c1cc(C(=O)OC)c2cc(Cc3ccc(F)cc3)cnc2c1O
25 | 140 to 141 °C | COC(=O)CCc1cc(C(=O)OC)c(O)c2c1CC(Cc1ccc(F)cc1)CN2 (stereo not drawn)
26 | 250 to 252 °C | COC(=O)c1cc(-c2ccccc2C(=O)O)c2cc(Cc3ccc(F)cc3)cnc2c1O
27 | 280 to 282 °C | CCNC(=O)Nc1cc(C(=O)OC)c(O)c2ncc(Cc3ccc(F)cc3)cc12
28 | 247 to 249 °C | COC(=O)c1cc(NC(=O)c2ccccc2)c2cc(Cc3ccc(F)cc3)cnc2c1O
29 | 239 to 240 °C | COC(=O)c1cc(NC(=O)Cc2ccc(F)cc2)c2cc(Cc3ccc(F)cc3)cnc2c1O
30 | 253 to 254 °C | COC(=O)c1cc(NC(=O)c2ccc(Cl)cc2)c2cc(Cc3ccc(F)cc3)cnc2c1O
31 | 119 to 120 °C | COC(=O)c1cc(N2CCOCC2)c2cc(Cc3ccc(F)cc3)cnc2c1O
32 | 133 to 134 °C | COC(=O)c1cc(N2CCCCC2)c2cc(Cc3ccc(F)cc3)cnc2c1O
33 | 202 to 203 °C | CCC(=O)c1cc(N2CCCC2=O)c2cc(Cc3ccc(F)cc3)cnc2c1O
34 | 168 to 170 °C | COC(=O)C(=O)Nc1cc(C(=O)OC)c(O)c2ncc(Cc3ccc(F)cc3)cc12
35 | 182 to 183 °C | COC(=O)c1cc(NC(=O)c2cc(C)on2)c2cc(Cc3ccc(F)cc3)cnc2c1O
36 | 230 to 232 °C | CC(=O)N1CCC(OC(=O)c2cc(C(=O)O)c3cc(Cc4ccc(F)cc4)cnc3c2O)CC1
37 | 129 to 131 °C | CC(=O)NNC(=O)c1cc(C(=O)OC2CCN(C(C)=O)CC2)c(O)c2ncc(Cc3ccc(F)cc3)cc12
38 | 89 to 90 °C | COCCC(=O)Nc1cc(C(=O)OC2CCN(C(C)=O)CC2)c(O)c2ncc(Cc3ccc(F)cc3)cc12
39 | 178 to 179 °C | COC(=O)c1cc(C#N)c2cc(Cc3ccc(F)cc3)cnc2c1O
40 | 258 to 259 °C | COC(=O)c1cc(C(=O)Nc2nccs2)c2cc(Cc3ccc(F)cc3)cnc2c1O
41 | 198 to 199 °C | COC(=O)c1cc(C(=O)NCCN2CCOCC2)c2cc(Cc3ccc(F)cc3)cnc2c1O
42 | > 250 °C | COC(=O)c1cc(C(=O)NNS(C)(=O)=O)c2cc(Cc3ccc(F)cc3)cnc2c1O

Row | melting point | Structure (SMILES)
43 | 136 to 137 °C | COC(=O)c1cc(C(=O)N2CCCOCC2)c2cc(Cc3ccc(F)cc3)cnc2c1O
44 | 233 to 234 °C | COC(=O)c1cc(C(=O)NN2CCCCC2)c2cc(Cc3ccc(F)cc3)cnc2c1O
45 | 181 to 182 °C | COCC(=O)NNC(=O)c1cc(C(=O)OC)c(O)c2ncc(Cc3ccc(F)cc3)cc12
46 | 192 to 193 °C | C#CCNC(=O)c1cc(C(=O)OC)c(O)c2ncc(Cc3ccc(F)cc3)cc12
47 | 235 to 238 °C | COC(=O)c1cc(C(=O)N2CCC(C(N)=O)CC2)c2cc(Cc3ccc(F)cc3)cnc2c1O
48 | 246 to 247 °C | COC(=O)c1cc(C(=O)NCC(=O)O)c2cc(Cc3ccc(F)cc3)cnc2c1O
49 | 221 to 222 °C | COC(=O)c1cc(C(=O)NC2CCCC2)c2cc(Cc3ccc(F)cc3)cnc2c1O
50 | 208 to 209 °C | COC(=O)c1cc(C(=O)NNC(C)=O)c2cc(Cc3ccc(F)cc3)cnc2c1O
51 | 249 to 250 °C | COC(=O)c1cc(C(=O)NNC=O)c2cc(Cc3ccc(F)cc3)cnc2c1O
52 | 198 to 199 °C | COC(=O)c1cc(C(=O)NN(C)C)c2cc(Cc3ccc(F)cc3)cnc2c1O
53 | 156 to 157 °C | COC(=O)c1cc(C(=O)NN)c2cc(Cc3ccc(F)cc3)cnc2c1O
54 | 247 to 248 °C | COC(=O)c1cc(C(=O)NCC(N)=O)c2cc(Cc3ccc(F)cc3)cnc2c1O
55 | 175 to 176 °C | COC(=O)c1cc(C(=O)NCCOC(C)C)c2cc(Cc3ccc(F)cc3)cnc2c1O
56 | 194 to 195 °C | COC(=O)c1cc(C(=O)NCCOc2ccccc2)c2cc(Cc3ccc(F)cc3)cnc2c1O
57 | 209 to 210 °C | COC(=O)CNC(=O)c1cc(C(=O)OC)c(O)c2ncc(Cc3ccc(F)cc3)cc12
58 | 204 to 205 °C | COC(=O)c1cc(C(=O)NC(C)(C)CO)c2cc(Cc3ccc(F)cc3)cnc2c1O
59 | 227 to 229 °C | COC(=O)c1cc(C(=O)NNC(=O)c2ccccc2)c2cc(Cc3ccc(F)cc3)cnc2c1O
60 | 161 to 162 °C | COC(=O)c1cc(C(=O)N2CCC(CO)CC2)c2cc(Cc3ccc(F)cc3)cnc2c1O
61 | 188 to 189 °C | CNNC(=O)c1cc(C(=O)OC)c(O)c2ncc(Cc3ccc(F)cc3)cc12

Row | Structure (SMILES) | melting point
62 | COC(=O)c1cc(C(=O)[O-])c2cc(Cc3ccc(F)cc3)cnc2c1O.[Na+] | > 208 °C
63 | COC(=O)c1cc(C(=O)O)c2cc(Cc3ccc(F)cc3)cnc2c1O.NCCN | 164 °C
